Earlier results, collected in paper PMC3015105 (Bioorganic & medicinal chemistry letters, 2010).

Key:
[1] = molecular target: human dopamine transporter (hDAT) (Homo sapiens, UniProt Q01959); settings: read-out: IC50 DAT inhibition; reported by Carroll
Sequence of human dopamine transporter (hDAT) (Q01959 whole entry): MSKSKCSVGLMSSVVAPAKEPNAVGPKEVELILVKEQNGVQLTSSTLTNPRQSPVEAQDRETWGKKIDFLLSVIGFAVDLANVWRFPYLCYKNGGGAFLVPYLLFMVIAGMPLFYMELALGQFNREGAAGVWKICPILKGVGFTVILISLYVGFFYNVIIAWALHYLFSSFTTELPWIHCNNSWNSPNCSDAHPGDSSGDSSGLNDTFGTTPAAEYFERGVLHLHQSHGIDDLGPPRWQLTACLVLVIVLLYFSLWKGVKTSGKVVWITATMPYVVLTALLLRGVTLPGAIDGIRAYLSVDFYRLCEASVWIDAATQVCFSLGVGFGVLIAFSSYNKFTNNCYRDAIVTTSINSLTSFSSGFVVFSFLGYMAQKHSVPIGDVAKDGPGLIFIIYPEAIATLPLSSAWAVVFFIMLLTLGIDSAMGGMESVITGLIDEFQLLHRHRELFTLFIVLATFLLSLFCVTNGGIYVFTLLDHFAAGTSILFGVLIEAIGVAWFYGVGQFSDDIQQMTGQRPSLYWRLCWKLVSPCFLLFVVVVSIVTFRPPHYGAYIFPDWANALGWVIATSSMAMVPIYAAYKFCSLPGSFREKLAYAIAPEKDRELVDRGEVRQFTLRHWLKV

Compound | duration of action [min] | immediate effect (onset) [s] | IC50 [1] [pM]
COC(=O)[C@H]1[C@@H](OC(=O)c2ccccc2)C[C@@H]2CC[C@H]1N2C [Cocaine] | 10 to 15 | < 15 | –
Cc1cc(C2C3CCC(CC2c2ccc(Cl)cc2)S3)on1 (stereo not drawn) [2β-(3-methylisoxazol-5-yl)-3β-(4-chlorophenyl)-8-thiabicyclo[3.2.1]octane] | – | – | 590
